Legend:
[1] = tested on: lambsquarters; assay: Test D preemergence; type: in vivo, Chenopodium album; conditions: Preemergence, scale 0 to 100
Method in brief: (§1)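 Seeds are planted in silt loam and treated preemergence, while parallel plantings in a peat moss/vermiculite medium with starter nutrients receive postemergence sprays at the 1- to 4-leaf stage. All formulations use a non-phytotoxic solvent mixture with surfactant. Plants are kept in a controlled growth environment and rated visually after 14–21 days.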

[2] = tested on: buckwheat, wild; assay: Test D preemergence; type: in vivo, Polygonum convolvulus; conditions: Preemergence, scale 0 to 100
Method in brief: as §1

[3] = tested on: bromegrass, downy; assay: Test D preemergence; type: in vivo, Bromus tectorum; conditions: Preemergence, scale 0 to 100
Method in brief: as §1

[4] = tested on: lambsquarters; assay: Test D postemergence; type: in vivo, Chenopodium album; conditions: scale 0 to 100
Method in brief: as §1

[5] = tested on: arrowleaf sida; assay: Test F preemergence; type: in vivo, Sida rhombifolia
Method in brief: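 Planting in silt loam, then preemergence treatment; postemergence treatment in parallel on 1- to 4-leaf seedlings (2–18 cm). Compound carried in a non-phytotoxic solvent mixture with surfactant. Greenhouse, 14–21 days; visual comparison with controls, scored 0 (none) to 100 (full control).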

[6] = tested on: canarygrass; assay: Test D postemergence; type: in vivo, Phalaris minor; conditions: scale 0 to 100
Method in brief: as §1

[7] = tested on: oat, wild; assay: Test D postemergence; type: in vivo, Avena fatua; conditions: scale 0 to 100
Method in brief: as §1

[8] = tested on: pigweed; assay: Test D postemergence; type: in vivo, Amaranthus retroflexus; conditions: scale 0 to 100
Method in brief: as §1

[9] = tested on: bluegrass; assay: Test D postemergence; type: in vivo, Poa annua; conditions: scale 0 to 100
Method in brief: as §1

[10] = tested on: oilseed rape; assay: Test D postemergence; type: in vivo, Brassica napus; conditions: scale 0 to 100
Method in brief: as §1

[11] = tested on: field poppy; assay: Test D postemergence; type: in vivo, Papaver rhoeas; conditions: scale 0 to 100
Method in brief: as §1

[12] = tested on: ryegrass, Italian; assay: Test D preemergence; type: in vivo, Lolium multiflorum; conditions: Preemergence, scale 0 to 100
Method in brief: as §1

`CCCc1cc(C(=O)NC(C)C)nn1Cc1cc(C(F)(F)F)nn1C` [Compound 201] was tested, and the “Plant response rating, Lambsquarters” value ([1]; 62 g ai/ha) was 90, the “Plant response rating, Lambsquarters” value ([1]; 125 g ai/ha) was 100 and the “Plant response rating, Lambsquarters” value ([1]; 250 g ai/ha) was 100. For the same compound, the “Plant response rating, Buckwheat, Wild” value ([2]; 31 g ai/ha) was 15, the “Plant response rating, Buckwheat, Wild” value ([2]; 62 g ai/ha) was 100 and the “Plant response rating, Buckwheat, Wild” value ([2]; 250 g ai/ha) was 100. For the same compound, the “Plant response rating, Bromegrass, Downy” value ([3]; 31 g ai/ha) was 20, the “Plant response rating, Bromegrass, Downy” value ([3]; 62 g ai/ha) was 60 and the “Plant response rating, Bromegrass, Downy” value ([3]; 125 g ai/ha) was 70. For the same compound, the “Plant response rating, Bromegrass, Downy” value ([3]; 250 g ai/ha) was 100, the “Lambsquarters plant response rating” value ([4]; Postemergence, 31 g ai/ha) was 75 and the “Lambsquarters plant response rating” value ([4]; Postemergence, 125 g ai/ha) was 90. The “Lambsquarters plant response rating” value ([4]; Postemergence, 250 g ai/ha) was 90, the “Lambsquarters plant response rating” value ([4]; postemergence, 62 g ai/ha) was 75 and the “Plant response rating, Arrowleaf Sida” value ([5]; Preemergence, 16 g ai/ha, scale 0 to 100) was 0. For the same compound, the “Plant response rating, Arrowleaf Sida” value ([5]; Preemergence, 62 g ai/ha, scale 0 to 100) was 0, the “Plant response rating, Arrowleaf Sida” value ([5]; Preemergence, 125 g ai/ha, scale 0 to 100) was 0 and the “Plant response rating, Arrowleaf Sida” value ([5]; Preemergence, 250 g ai/ha, scale 0 to 100) was 75. The “Plant response rating, Arrowleaf Sida” value ([5]; preemergence, 16 g ai/ha, scale 0 to 100, 100 is complete control) was 0, the “Canarygrass plant response rating” value ([6]; Postemergence, 31 g ai/ha) was 15 and the “Canarygrass plant response rating” value ([6]; Postemergence, 125 g ai/ha) was 20. For the same compound, the “Canarygrass plant response rating” value ([6]; Postemergence, 250 g ai/ha) was 60, the “Canarygrass plant response rating” value ([6]; postemergence, 62 g ai/ha) was 15 and the “Oat, Wild plant response rating” value ([7]; Postemergence, 31 g ai/ha) was 25. The “Oat, Wild plant response rating” value ([7]; Postemergence, 125 g ai/ha) was 50, the “Oat, Wild plant response rating” value ([7]; Postemergence, 250 g ai/ha) was 70 and the “Oat, Wild plant response rating” value ([7]; postemergence, 62 g ai/ha) was 25. The “Pigweed plant response rating” value ([8]; Postemergence, 31 g ai/ha) was 70, the “Pigweed plant response rating” value ([8]; Postemergence, 125 g ai/ha) was 75 and the “Pigweed plant response rating” value ([8]; Postemergence, 250 g ai/ha) was 80. For the same compound, the “Pigweed plant response rating” value ([8]; postemergence, 62 g ai/ha) was 70, the “Bluegrass plant response rating” value ([9]; Postemergence, 31 g ai/ha) was 20 and the “Bluegrass plant response rating” value ([9]; Postemergence, 125 g ai/ha) was 35. For the same compound, the “Bluegrass plant response rating” value ([9]; Postemergence, 250 g ai/ha) was 40, the “Bluegrass plant response rating” value ([9]; postemergence, 62 g ai/ha) was 20 and the “Oilseed Rape plant response rating” value ([10]; Postemergence, 31 g ai/ha) was 40. The “Oilseed Rape plant response rating” value ([10]; Postemergence, 125 g ai/ha) was 50, the “Oilseed Rape plant response rating” value ([10]; Postemergence, 250 g ai/ha) was 70 and the “Oilseed Rape plant response rating” value ([10]; postemergence, 62 g ai/ha) was 40. The “Field Poppy plant response rating” value ([11]; Postemergence, 31 g ai/ha) was 55, the “Field Poppy plant response rating” value ([11]; Postemergence, 125 g ai/ha) was 60 and the “Field Poppy plant response rating” value ([11]; Postemergence, 250 g ai/ha) was 65. For the same compound, the “Field Poppy plant response rating” value ([11]; postemergence, 62 g ai/ha) was 55, the “Plant response rating, Ryegrass, Italian” value ([12]; 62 g ai/ha) was 65 and the “Plant response rating, Ryegrass, Italian” value ([12]; 125 g ai/ha) was 85. The “Plant response rating, Ryegrass, Italian” value ([12]; 250 g ai/ha) was 100.

Reference: patent publication US20150105252A1, “SUBSTITUTED PYRAZOLES AS HERBICIDES” (E I DU PONT DE NEMOURS AND COMPANY, priority 2013, published 2015)
